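The compound was tested at five concentrations on cells cultured in 96-well plates, with a 48-hour exposure period. Abbreviation: GI50, concentration required for 50% inhibition of growth. Definition used: TGI = concentration required for complete inhibition of growth.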
Columns and labels:
Experiment in all cases: NCI-60 cell line screen, 48 h
[1] = tested on: EKVX NSCLC
[2] = tested on: MALME-3M melanoma
[3] = tested on: MOLT-4 leukemia
[4] = tested on: HOP-92 NSCLC
[5] = tested on: K-562 leukemia
[6] = tested on: HCT-15 colon
[7] = tested on: MCF7 breast
[8] = tested on: COLO 205 colon
[9] = tested on: SN12C renal
[10] = tested on: SR leukemia
[11] = tested on: HL-60(TB) leukemia
[12] = tested on: NCI/ADR-RES ovarian
[13] = tested on: UACC-62 melanoma
[14] = tested on: MDA-MB-435
[15] = tested on: SK-MEL-28 melanoma
[16] = tested on: OVCAR-8 ovarian
[17] = tested on: SK-MEL-2 melanoma
[18] = tested on: MDA-MB-231 breast
[19] = tested on: CCRF-CEM leukemia
[20] = tested on: PC-3 prostate
[21] = tested on: TK-10 renal
[22] = tested on: HT29 colon
[23] = tested on: SNB-19 CNS
[24] = tested on: M14 melanoma
[25] = tested on: SK-MEL-5 melanoma
[26] = tested on: SF-539 CNS
[27] = tested on: NCI-H522 lung
[28] = tested on: OVCAR-3 ovarian
[29] = tested on: BT-549 breast
[30] = tested on: RPMI-8226 leukemia
[31] = tested on: UACC-257 melanoma
[32] = tested on: A498 renal
[33] = tested on: RXF 393 renal
[34] = tested on: KM12 colon
[35] = tested on: T-47D breast
[36] = tested on: NCI-H23 lung
[37] = tested on: A549 NSCLC
[38] = tested on: SF-295 CNS
[39] = tested on: LOX IMVI melanoma
[40] = tested on: IGROV1 ovarian
[41] = tested on: SW-620 colon
[42] = tested on: NCI-H460 lung
[43] = tested on: HCC-2998 colon
[44] = tested on: SF-268 CNS
[45] = tested on: SK-OV-3 ovarian
[46] = tested on: UO-31 renal
[47] = tested on: ACHN renal
[48] = tested on: SNB-75 CNS
[49] = tested on: HOP-62 NSCLC
[50] = tested on: U251 CNS
[51] = tested on: HS 578T breast
[52] = tested on: NCI-H226 lung
[53] = tested on: HCT-116 colon
[54] = tested on: DU-145 prostate
[55] = tested on: OVCAR-4 ovarian
[56] = tested on: CAKI-1 renal
[57] = tested on: 786-0 renal
[58] = tested on: OVCAR-5 ovarian

O=C(c1ccccc1)c1nn(-c2ccc(Cl)cc2)c2nc3nc(-c4ccccc4)cc(=O)n3nc12
GI50 [1]: 30.3 µM | TGI [1]: > 100 µM | GI50 [2]: 3.08 µM | TGI [2]: 65.1 µM | GI50 [3]: 37.9 µM | TGI [3]: > 100 µM | GI50 [4]: 22.1 µM | TGI [4]: 74.7 µM | GI50 [5]: 50.1 µM | TGI [5]: > 100 µM | GI50 [6]: 38.2 µM | TGI [6]: > 100 µM | GI50 [7]: 40.9 µM | TGI [7]: > 100 µM | GI50 [8]: 47.2 µM | TGI [8]: > 100 µM | GI50 [9]: 24 µM | TGI [9]: 59.8 µM | GI50 [10]: 22.9 µM | TGI [10]: 57.6 µM | GI50 [11]: 3.48 µM | TGI [11]: 14.8 µM | GI50 [12]: 35.5 µM | TGI [12]: > 100 µM | GI50 [13]: 19.8 µM | TGI [13]: 41.9 µM | GI50 [14]: 6.65 µM | TGI [14]: > 100 µM | GI50 [15]: 53.7 µM | TGI [15]: > 100 µM | GI50 [16]: 48.3 µM | TGI [16]: > 100 µM | GI50 [17]: 26.3 µM | TGI [17]: 70.4 µM | GI50 [18]: 26 µM | TGI [18]: > 100 µM | GI50 [19]: 3.58 µM | TGI [19]: > 100 µM | GI50 [20]: 39.3 µM | TGI [20]: > 100 µM | GI50 [21]: 31.8 µM | TGI [21]: 85.6 µM | GI50 [22]: 33.1 µM | TGI [22]: > 100 µM | GI50 [23]: 39.9 µM | TGI [23]: > 100 µM | GI50 [24]: 31.6 µM | TGI [24]: > 100 µM | GI50 [25]: 20.4 µM | TGI [25]: 51.9 µM | GI50 [26]: 22.4 µM | TGI [26]: 45.4 µM | GI50 [27]: 31.2 µM | TGI [27]: > 100 µM | GI50 [28]: 24.5 µM | TGI [28]: 77.8 µM | GI50 [29]: 26.2 µM | TGI [29]: 62.8 µM | GI50 [30]: 28.8 µM | TGI [30]: > 100 µM | GI50 [31]: 70.7 µM | TGI [31]: > 100 µM | GI50 [32]: 58.8 µM | TGI [32]: > 100 µM | GI50 [33]: 68.9 µM | TGI [33]: > 100 µM | GI50 [34]: 31.9 µM | TGI [34]: > 100 µM | GI50 [35]: 65.9 µM | TGI [35]: > 100 µM | GI50 [36]: 65.6 µM | TGI [36]: > 100 µM | GI50 [37]: 66.3 µM | TGI [37]: > 100 µM | GI50 [38]: 23.5 µM | TGI [38]: 63.1 µM | GI50 [39]: 28.1 µM | TGI [39]: > 100 µM | GI50 [40]: 18.3 µM | TGI [40]: > 100 µM | GI50 [41]: 49.5 µM | TGI [41]: > 100 µM | GI50 [42]: 39.1 µM | TGI [42]: > 100 µM | GI50 [43]: 29.7 µM | TGI [43]: 66.5 µM | GI50 [44]: 42.2 µM | TGI [44]: > 100 µM | GI50 [45]: > 100 µM | TGI [45]: > 100 µM | GI50 [46]: 25.7 µM | TGI [46]: > 100 µM | GI50 [47]: 37.4 µM | TGI [47]: > 100 µM | GI50 [48]: 28.8 µM | TGI [48]: 97.9 µM | GI50 [49]: 32.3 µM | TGI [49]: > 100 µM | GI50 [50]: 31.5 µM | TGI [50]: > 100 µM | GI50 [51]: 28.9 µM | TGI [51]: > 100 µM | GI50 [52]: > 100 µM | TGI [52]: > 100 µM | GI50 [53]: 19.9 µM | TGI [53]: 52.2 µM | GI50 [54]: 30.7 µM | TGI [54]: > 100 µM | GI50 [55]: 39.9 µM | TGI [55]: > 100 µM | GI50 [56]: > 100 µM | TGI [56]: > 100 µM

COc1ccc(/C(=C/c2cc(OC)c(OC)c(OC)c2)[N+](=O)[O-])cc1
GI50 [1]: 1.96 µM | TGI [1]: 4.32 µM | GI50 [2]: 1.68 µM | TGI [2]: 3.71 µM | GI50 [4]: 1.44 µM | TGI [4]: 3.09 µM | GI50 [57]: 1.66 µM | TGI [57]: 3.05 µM | GI50 [5]: 1.71 µM | TGI [5]: > 100 µM | GI50 [6]: 1.63 µM | TGI [6]: 3.54 µM | GI50 [8]: 1.79 µM | TGI [8]: 3.74 µM | GI50 [9]: 1.6 µM | TGI [9]: 3.24 µM | GI50 [11]: 1.61 µM | TGI [11]: 5.59 µM | GI50 [12]: 2.47 µM | TGI [12]: 7.55 µM | GI50 [13]: 1.56 µM | TGI [13]: 3.07 µM | GI50 [14]: 1.81 µM | TGI [14]: 3.99 µM | GI50 [15]: 1.88 µM | TGI [15]: 3.9 µM | GI50 [16]: 2.67 µM | TGI [16]: 8.12 µM | GI50 [17]: 2.04 µM | TGI [17]: 4.92 µM | GI50 [18]: 1.47 µM | TGI [18]: 3.28 µM | GI50 [20]: 1.95 µM | TGI [20]: 3.88 µM | GI50 [21]: 1.88 µM | TGI [21]: 3.59 µM | GI50 [22]: 3.68 µM | TGI [22]: 8.98 µM | GI50 [23]: 1.68 µM | TGI [23]: 3.64 µM | GI50 [24]: 1.79 µM | TGI [24]: 3.72 µM | GI50 [25]: 1.69 µM | TGI [25]: 3.11 µM | GI50 [26]: 1.61 µM | TGI [26]: 2.98 µM | GI50 [27]: 1.95 µM | TGI [27]: 3.62 µM | GI50 [28]: 1.66 µM | TGI [28]: 3.14 µM | GI50 [29]: 1.7 µM | TGI [29]: 3.2 µM | GI50 [30]: 1.7 µM | TGI [30]: 4.77 µM | GI50 [31]: 1.67 µM | TGI [31]: 3.48 µM | GI50 [32]: 1.76 µM | TGI [32]: 3.63 µM | GI50 [33]: 1.73 µM | TGI [33]: 3.32 µM | GI50 [34]: 1.89 µM | TGI [34]: 3.99 µM | GI50 [35]: 1.65 µM | TGI [35]: 10.3 µM | GI50 [36]: 2.02 µM | TGI [36]: 4.64 µM | GI50 [37]: 3 µM | TGI [37]: 10.3 µM | GI50 [38]: 2.09 µM | TGI [38]: 5.34 µM | GI50 [39]: 1.62 µM | TGI [39]: 3.07 µM | GI50 [40]: 1.8 µM | TGI [40]: 3.94 µM | GI50 [41]: 1.71 µM | TGI [41]: 3.91 µM | GI50 [42]: 2.24 µM | TGI [42]: 5.23 µM | GI50 [43]: 1.81 µM | TGI [43]: 3.28 µM | GI50 [44]: 1.79 µM | TGI [44]: 3.64 µM | GI50 [45]: 4.96 µM | TGI [45]: 17 µM | GI50 [46]: 1.3 µM | TGI [46]: 2.62 µM | GI50 [47]: 1.54 µM | TGI [47]: 2.88 µM | GI50 [48]: 2.02 µM | TGI [48]: 6.3 µM | GI50 [49]: 2.64 µM | TGI [49]: 5.93 µM | GI50 [50]: 1.58 µM | TGI [50]: 3.05 µM | GI50 [51]: 3.21 µM | TGI [51]: 21.4 µM | GI50 [52]: 2.29 µM | TGI [52]: 5.78 µM | GI50 [54]: 1.75 µM | TGI [54]: 3.14 µM | GI50 [55]: 1.63 µM | TGI [55]: 3.29 µM | GI50 [58]: 2.01 µM | TGI [58]: 4.09 µM
